# Experimental data as given in patent US20220023221A1, “Oral Unit Dosage Form Of Ivermectin” (CHEMO RESEARCH, S.L., priority 2020, published 2022).
# How the values were obtained:
# [1] = increasing doses from 150 μg/kg/day to 1600 μg/kg/day, onchoceriasis patients; cited from earlier work
# [2] = oral administration of the approved dose of 200 μg/kg; read-out: maximum plasma concentration (Cmax); cited from earlier work
# SARS-CoV-2 virus = conditions: cited from earlier work
# [3] = oral administration of the ivermectin tablets, 600 μg/kg once daily; patient with 100% viral load reduction
# SARS-CoV-2 = experiment: viral load by real-time (RT) PCR in the nasal mucosa of SARS-CoV-2 positive patients; type: in vivo
# Source text: The term “viral load” is well known to a person skilled in the art. The term “viral load” is a measure of the severity of an active viral infection, and can be determined by methods known to the person skilled in the art. As an Example, the viral load can be calculated by estimating the live amount of virus in an involved body fluid such as a number of RNA copies per milliliter of blood plasma. For example, the viral load can be determined by a real-time (RT) PCR test.
# Ivermectin tablets as produced in Example 1 were administered for seven days in a daily dose of 600 μg/kg once daily to 9 patients (IVM) which have been tested to be positive for SARS-CoV-2, whereas 7 patients (control) which have been tested to be positive for SARS-CoV-2, received placebo tablets during said 7 days period.
# The viral load was measured by a real-time (RT) PCR test on treatment days 1, 3, 5 and 7 in the nasal mucosa.
substance,measurement,setting,value
ivermectin,tolerability,[1],well tolerated
same,Cmax,[2],50 nM
same,IC50,"SARS-CoV-2 virus; SARS-CoV-2 replication in vitro, read-out: concentration resulting in 50% inhibition (IC50)",2000 nM
same,inhibition of replication of SARS-CoV-2 virus in vitro,SARS-CoV-2 virus; ivermectin at 5 μM,inhibit the replication of SARS-CoV-2 virus in vitro
same,"ivermectin (IVM) concentration in the blood, single patient",[3],183 ng/mL
same,reduction in viral load,"SARS-CoV-2; Day 7, 600 μg/kg once daily for seven days, 9 patients, nasal mucosa",more than 50%
same,reduction of the viral load compared with control,"SARS-CoV-2; each timepoint (days 1, 3, 5, 7), 600 μg/kg once daily, nasal mucosa",greater reduction of the viral load at each timepoint
same,"Decay rate of viral load, single patient",SARS-CoV-2; the patient with 183 ng/ml IVM concentration,0.54 day⁻¹
same,"viral load reduction in the nasal mucosa, single patient",SARS-CoV-2; the patient with 183 ng/ml ivermectin concentration in the blood,100%
